Key:
[1] = tested on: healthy elderly volunteers; experiment: Battery of psychomotor tasks after an evening tablet (Example 4); assay type: in vivo, human
Method: (§1) The effect of melatonin (2 mg prolonged-release formulation), N, N, 6-trimethyl-2-p-tolylimidazo[1,2-a]pyridine-3-acetamide (zolpidem; 10 mg) and placebo on psychomotor skills and driving performance were assessed in 16 healthy elderly volunteers age 59.4 years (SD 3.2). In a randomized, double-blind, crossover study the subjects were given a tablet of placebo in the evening to establish baseline and then a tablet of melatonin, zolpidem or placebo in a random order in the evening with one week with no treatment in between treatments. A battery of psychomotor tasks, driving performance and wake EEG during a driving test were studied in the patients at pre-selected intervals after the administration of the tablet.

[2] = tested on: healthy elderly volunteers; experiment: Driving performance test after an evening tablet (Example 4); assay type: in vivo, human; settings: 2 hours post-dosing; zolpidem 10 mg, melatonin prolonged release 2 mg
Method: as §1

[3] = tested on: elderly primary insomnia patients; experiment: Subjectively assessed quality of sleep and daytime alertness on 100 mm line (Example 2); assay type: in vivo, human; settings: 2 mg per night prolonged-release, 3 weeks
Method: The effect of a prolonged-release formulation of melatonin on subjectively assessed sleep quality and daytime vigilance in 170 elderly primary insomnia patients (aged 68.5 [SD 8.3] years) were studied in a randomized, double-blind, two parallel group study. The subjects were treated for 2 weeks with placebo to establish baseline characteristics and then for 3 weeks with melatonin (2 mg per night of prolonged-release formulation) or placebo. On the last three days of the baseline and treatment periods patients were asked to assess the quality of their sleep the previous night and their feeling in the morning. The quality of sleep question was “How would you compare the quality of sleep using the medication with non-medicated (your usual) sleep?” The patients marked the level of their perceived quality of sleep on a 100 mm, non-hatched horizontal line with two endpoints. The left endpoint was labeled “more restless than usual” and the right endpoint was labeled “more restful than usual”. The waking state question was “How do you feel now?” The patients marked the level of their perceived waking state on a 100 mm, non-hatched horizontal line with two endpoints. The left endpoint was labeled “tired” and the right endpoint was labeled “alert”. The distance of the patient mark from the right endpoint in mm was measured (a reduction in value therefore indicates a better sleep or less tired state). The mean distance across the three nights was calculated.

[4] = tested on: primary insomnia patients (aged 20-80 years); experiment: Subjectively assessed quality of sleep and daytime alertness on 100 mm line (Example 3); assay type: in vivo, human; settings: for Change in perceived daytime alertness, mean in mm / Change in perceived quality of sleep, mean in mm: 2 mg per night prolonged-release, 3 weeks
Method: The effect of a prolonged-release formulation of melatonin on subjectively assessed sleep quality and daytime vigilance in 170 elderly primary insomnia patients (aged 68.5 [SD 8.3] years) were studied in a randomized, double-blind, two parallel group study. The subjects were treated for 2 weeks with placebo to establish baseline characteristics and then for 3 weeks with melatonin (2 mg per night of prolonged-release formulation) or placebo. On the last three days of the baseline and treatment periods patients were asked to assess the quality of their sleep the previous night and their feeling in the morning. The quality of sleep question was “How would you compare the quality of sleep using the medication with non-medicated (your usual) sleep?” The patients marked the level of their perceived quality of sleep on a 100 mm, non-hatched horizontal line with two endpoints. The left endpoint was labeled “more restless than usual” and the right endpoint was labeled “more restful than usual”. The waking state question was “How do you feel now?” The patients marked the level of their perceived waking state on a 100 mm, non-hatched horizontal line with two endpoints. The left endpoint was labeled “tired” and the right endpoint was labeled “alert”. The distance of the patient mark from the right endpoint in mm was measured (a reduction in value therefore indicates a better sleep or less tired state). The mean distance across the three nights was calculated. The effect of melatonin on subjectively assessed sleep quality and daytime vigilance in 131 primary insomnia patients (aged 20-80 years) were studied in a randomised, double-blind, parallel group study. The subjects were treated for 1 week with placebo to establish baseline characteristics and then for 3 weeks with melatonin (2 mg per night of prolonged-release formulation) or placebo. On the last three days of the baseline and treatment periods patients were asked to assess the quality of their sleep the previous night and their feeling at daytime as described in Example 2.

[5] = tested on: patients with psychophysiological insomnia; settings: 5 mg at 8:00 pm for 1 week; cited from earlier work
[6] = tested on: elderly primary insomnia patients; experiment: Battery of psychomotor tests to assess daytime vigilance (Example 1); assay type: in vivo, human; settings: 2 mg prolonged-release formulation
Method: (§2) The effect of a prolonged-release formulation of melatonin on sleep quantity and quality in 40 elderly primary insomnia patients (aged 76 [SD 8] years) were studied in a randomized, double-blind, two parallel group study. The subjects were treated for 3 weeks every evening with melatonin (2 mg prolonged-release formulation) or placebo. Full-night polysomnographic recordings were performed on the last two days of treatment to measure quantitative aspects of sleep. On each morning following sleep recording in the laboratory, a battery of psychomotor tests was taken by all patients to assess daytime vigilance. In addition, patients recorded every day in diaries their perceived quality of sleep the previous night.

[7] = tested on: insomniac patients; settings: 75 mg per os at 10 PM daily for 14 consecutive days, cited from earlier work
[8] = tested on: elderly primary insomnia patients; experiment: Patient diaries of perceived quality of sleep (Example 1); assay type: in vivo, human; settings: 2 mg prolonged-release formulation, 3 weeks
Method: as §2

[9] = tested on: elderly primary insomnia patients; experiment: Full-night polysomnographic recordings after 3 weeks of treatment (Example 1); assay type: in vivo, human
Method: as §2

[10] = tested on: polysomnographically pre-screened insomniacs; settings: 1 and 5 mg at 10:45 pm for one night each, cited from earlier work
[11] = tested on: elderly patients with sleep maintenance insomnia; settings: immediate and controlled release formulations, 0.5 and 5 mg, cited from earlier work
[12] = zolpidem 10 mg single evening tablet
[13] = 2 mg prolonged-release formulation, 3 weeks, versus placebo

Cc1ccc(-c2nc3ccc(C)cn3c2CC(=O)N(C)C)cc1 [zolpidem, N, N, 6-trimethyl-2-p-tolylimidazo[1,2-a]pyridine-3-acetamide]
Memory efficiency, both recalls (immediate and delayed), compared to placebo and melatonin 2 mg ([1]; zolpidem 10 mg): decreased | impairments compared to placebo across measures of attention, episodic secondary memory and motor coordination [1, 12]: several acute impairments | time post-dosing by which acute impairments were resolved [1, 12]: ≤ 12.5 h | number of collisions [2]: increased number of collisions

COc1ccc2[nH]cc(CCNC(C)=O)c2c1 [melatonin]
quality of sleep and daytime alertness compared to placebo [3]: significantly improved | Change in perceived quality of sleep, change in mm mean ([3]; 170 elderly patients, reduction = better sleep): −24.3 mm | Change in perceived daytime alertness, change in mm mean ([3]; 170 elderly patients, reduction = less tired): −16.8 mm | quality of sleep and daytime alertness ([4]; 55 years and older patients): improvement | Change in perceived daytime alertness, mean in mm ([4]; Patients aged 55 and over): −16.3 mm | Change in perceived quality of sleep, mean in mm ([4]; Patients aged 55 and over): −13.1 mm | Change in perceived daytime alertness, mean in mm ([4]; Patients aged less than 55): −4.0 mm | Change in perceived quality of sleep, mean in mm ([4]; Patients aged less than 55): −1.6 mm | quality of sleep and daytime alertness compared to placebo ([4]; patients <55 years of age): significant worsening | patients unable to distinguish the period of active melatonin treatment [5]: 8 patients out of 15 | sleep quantity or quality [5]: no reported change | Critical Flicker fusion test and total reaction time, melatonin vs. placebo ([6]; at the end of treatment): significant treatment effects | psychomotor skills compared to placebo-treated group ([6]; morning after sleep recording): significantly higher | subjective assessment of total sleep time and daytime alertness ([7]; 13 patients): significant increase | patients reporting no significant effect on subjective feelings of well-being [7]: 7/13 | ease of getting to sleep as evaluated in diaries, compared to placebo [8]: did not evaluate the ease of getting to sleep as being better | quality of sleep as judged by patients in diaries [8]: improved | sleep onset latency (SL) time shortened on average, compared to placebo ([9]; 2 mg prolonged-release formulation every evening for 3 weeks, P=0.011): 9 min | duration of wake prior sleep onset (DWAPSO) compared to placebo ([9]; 2 mg prolonged-release formulation, 3 weeks, p=0.011): improved significantly | % of time spent asleep prior to sleep onset (DWAPSOP) compared to placebo ([9]; 2 mg prolonged-release formulation, 3 weeks, p=0.02): improved significantly | sleep architecture or all night EEG spectral analysis [9, 13]: no differences between groups | sleep maintenance variables (number of awakenings, DWASO, sleep efficiency, total sleep time) [9, 13]: no differences between melatonin and placebo | sleep latency, sleep efficiency, total sleep time, wake after sleep onset ([10]; 10 insomniacs): did not alter | patient-reported sleep quality [10]: improved | rested in the morning, patient-reported [10]: not more rested | total sleep time as believed by the patients [10]: shorter | sleep latency ([11]; 30 min before sleep): reduced | reported sleep quality or daytime measure of mood and alertness [11]: No melatonin-induced changes | wake time after sleep onset or total sleep time [11]: did not alter

Reference: patent US8962024B2, “Method for treating primary insomnia” (Neurim Pharmaceuticals (1991) Ltd, priority 2001, dated 2015)
